From patent US5039689A, “Antiparasitic 3(4-amino benzotriazo-1-yl-)1,2-cyclopentanediols” (Burroughs Wellcome Co., priority 1988, dated 1991)

Key:
[1] = test system: Trypanosoma brucei gambiense; assay: Activity against Trypanosoma brucei gambiense (procyclic culture, 5 days, density by Coulter Counter); format: cell-based, T. brucei subsp. gambiense procyclic (strain TH114); conditions: 120 h, T. brucei gambiense procyclic TH114, medium PDM-79, 27° C., read-out: I50
Experimental: A) Activity against Trypanosoma brucei gambiense 1. T. brucei subsp. gambiense procyclic (strain TH114 from the Institut fur Schiffs und Tropenkrankheiten, Hamburg) were grown in medium PDM-79 (Fish et al; BBA714[1982]422-428) in 25 cm^2 tissue (T-25) culture flasks at 27° C. in a 5% CO^2 /air atmosphere. Drugs were dissolved in 0.1N NaOH and their concentration determined from their spectral data. Drugs were added to the PDM-79 at a volume≤1% of the total volume and the drug containing medium filter-sterilised into T-25 flasks. Flasks were inoculated to a final density of ≈10^5 /ml and incubated for 5 days at which time their density was determined by a Coulter Counter (Model ZB1). Results were expressed as % inhibition relative to the controls.

[2] = test system: Pneumocystis carinii; assay: Activity against Pneumocystis carinii (method of Pesanti); format: cell-based; conditions: read-out: I50
Experimental: (B) Activity against Pneumocystis carinii
The compounds were tested according to the method of Pesanti, (J. Infect. Dis., 141(6), 775-780, 1980).

[3] = Oral toxicology test in rats; format: in vivo; conditions: Charles River CD rats, 4 mg/kg for 30 days
Experimental: Charles River CD rats were given oral doses of the compound of Example 3 at 4 mg/kg for 30 days.

SMILES | IC50 [1] [nM] | IC50 [2] [nM] | treatment-related changes with respect to clinical signs of toxicity, body weight, clinical pathology or pathology [3]
Nc1ncnc2c1ncn2[C@@H]1CC[C@@H](O)[C@H]1O (relative stereo) [Example 1C, (±)-(1R*,2S*,3R*)-3-(6-Amino-9H-purin-9-yl)-1,2-cyclopentanediol] | 0.7 |  | 
Nc1ncnc2c1ncn2[C@H]1CC[C@@H](O)[C@H]1O (relative stereo) [Example 2, (±)-(1R*,2S*,3S*)-3-(6-Amino-9H-purin-9-yl)-1,2-cyclopentanediol] | 1000 | < 20000 | 
Nc1ncnc2c1nnn2[C@@H]1CC[C@@H](O)[C@H]1O (relative stereo) [Example 3C, (±)-(1R*,2S*,3R*)-3-(7-Amino-3H-1,2,3-triazolo[4,5-d]pyrimidin-3-yl)-1,2-cyclopentanediol] | 200 | < 20000 | No treatment-related changes were observed
Nc1ncnc2c1ncn2[C@@H]1C[C@H](CCl)[C@@H](O)[C@H]1O (relative stereo) [Example 4, (±)-(1R*,2S*,3R*,5S*)-3-(6-Amino-9H-purin-9-yl)-5-(chloromethyl)-1,2-cyclopentanediol] | 3500 |  | 
C[C@H]1C[C@@H](n2cnc3c(N)ncnc32)[C@H](O)[C@@H]1O (relative stereo) [Example 5, (±)-(1R*,2S*,3R*,5S*)-3-(6-Amino-9H-purin-9-yl)-5-methyl-1,2-cyclopentanediol] | 2 |  | 
NC(=O)[C@@H]1C[C@H](n2cnc3c(N)ncnc32)[C@@H](O)[C@H]1O (relative stereo) [Example 6, (±)-(1R*,2S*,3R*,4S*)-4-(6-Amino-9H-purin-9-yl)-2,3-dihydroxy-1-cyclopentanecarboxamide] | 40 to 200 |  | 
